Values quoted from earlier work, collected in EP4635967A1, “OLIGONUCLEOTIDE COMPRISING LIPOPHILIC MONOMER AND USE THEREOF IN NON-LIVER DELIVERY” (Tuojie Biotech (Shanghai) Co., Ltd., priority 2022, dated 2024).

Settings: octanol-water partition coefficient, example values in the definition of lipophilic moiety

## CC(C)CCC[C@@H](C)[C@H]1CC[C@H]2[C@@H]3CC=C4C[C@@H](OC(=O)NCCCCCCO)CC[C@]4(C)[C@H]3CC[C@]12C [cholesteryl N-(hexan-6-ol)carbamate]
  logKow: 10.7

## NCCCCCCO [6-aminohexanol]
  logKow: about 0.7
